Source: ChEMBL document CHEMBL1144833, “Synthesis and evaluation of novel aromatic substrates and competitive inhibitors of GABA aminotransferase” (Bioorg Med Chem Lett, 2008)

Tests used:
[1] = target: T1, 4-aminobutyrate aminotransferase, mitochondrial (Homo sapiens, UniProt P80404); test: Activity at GABA-AT assessed as substrate activity relative to gamma amino butyric acid; parameters: concentration or dose not given beside the values
[2] = target: T1, 4-aminobutyrate aminotransferase, mitochondrial; test: Inhibition of GABA-AT

T1 sequence (P80404 whole entry): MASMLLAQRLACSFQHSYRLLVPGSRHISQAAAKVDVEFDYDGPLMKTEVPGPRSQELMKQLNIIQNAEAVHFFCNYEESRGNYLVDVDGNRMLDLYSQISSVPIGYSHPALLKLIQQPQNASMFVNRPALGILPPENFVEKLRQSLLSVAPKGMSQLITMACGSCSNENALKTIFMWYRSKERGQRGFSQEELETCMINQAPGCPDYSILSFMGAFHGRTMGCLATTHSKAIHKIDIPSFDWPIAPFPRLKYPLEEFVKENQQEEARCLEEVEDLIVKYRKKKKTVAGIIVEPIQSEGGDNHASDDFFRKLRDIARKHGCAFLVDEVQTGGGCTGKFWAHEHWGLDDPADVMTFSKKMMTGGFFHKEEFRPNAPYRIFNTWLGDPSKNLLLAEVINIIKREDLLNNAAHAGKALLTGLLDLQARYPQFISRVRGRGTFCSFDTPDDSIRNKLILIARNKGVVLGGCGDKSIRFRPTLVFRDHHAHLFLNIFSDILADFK

Row | Structure (SMILES) | Relative stimulatory activity [1] [%] | IC50 [2] [mM]
1 | NCc1cccc(C(=O)O)c1 | 3.42 | > 5
2 | NCc1cccc(CC(=O)O)c1 | 0.78 | > 5
3 | Nc1cccc(C(=O)O)c1 [3-AMINOBENZOIC ACID] | 0 | > 5
4 | Nc1ccccc1C(=O)O [ANTHRANILIC ACID] | 0 | > 5
5 | NCc1ccccc1C(=O)O | 0 | > 5
6 | NCc1ccccc1CC(=O)O | 5.65 | > 5
7 | Nc1cccc(CC(=O)O)c1 | 0 | > 5
